Test results: patent publication US20160271145A1, “METHOD FOR ENLARGING THE PARTICLE SIZE OF CRYSTALLINE MICROPARTICLES OF ACTIVE SUBSTANCE” (Jesalis Pharma GmbH, priority 2012, published 2016)

Experiments:
[1] = microparticles by the method of DE 102008037025 A1, as stated in the background; cited from earlier work
[2] = granulometric analysis and span by laser diffraction (Sympatec, RODOS), reference test according to DE 102008037025 A1; type: physicochemical; conditions: Comparison example, spray-dried, dispersing pressure 5 bar
Experimental: A 100-ml stirred vessel with blade stirrer is charged with 160 g of Y-stabilized zirconium oxide spheres with a diameter of 0.5 mm plus 30 ml of water. A solution of 0.6 g fluticasone propionate in 10 ml acetone is added to these, with stirring. After stirring for 5 min, a solution of 1.8 g fluticasone in 30 ml acetone and in the same ratio 90 ml water are added dropwise within 10 min, with stirring at 1300 rev/min. Simultaneously, product suspension is drawn off, with approximately constant filling level. Addition and product withdrawal can also take place quasicontinuously in smaller portions without any adverse effect on the result, if the above time frame is maintained. After addition, to complete the yield rinsing is carried out with approx. 60 ml water. Alternatively, the suspension in the crystallizer can be left as starting suspension for the subsequent batch. Altogether, 180 g of suspension with a solids content of 13 mg per ml is obtained. The suspension is then spray-dried Granulometric analysis and span determination were effected by means of laser diffraction (Sympatec Helps, RODOS dispersing system, dispersing pressure 5 bar).

[3] = solubility of the active substance in the solvent-antisolvent (acetone-water) mixture of the first suspension; type: physicochemical; conditions: acetone content reduced to 42% by addition of water
Excerpt: Solubilities of the active substance in the solvent-antisolvent mixture of the first suspension of 0.001-0.5 wt. % are suitable for carrying out the method according to the invention. Solubilites of 0.01-0.2 wt. %, in particular 0.02-0.2 wt. % are preferred. By solubility is meant, within the framework of the invention, the usual solubility known to a person skilled in the art, namely the solubility of a substance in thermodynamic equilibrium at room temperature in the solvent-antisolvent mixture. The solubilities are not relative to volume, i.e., they specify the solubility of the active substance in the total volume of the liquid phase of the suspension. It is clear from the stated solubilities that microparticles of active substance are present throughout the method.

[4] = particle size (d50) and span by laser diffraction, Mastersizer E; type: physicochemical; conditions: for d50 value of the particle size distribution (first d50): acetone:water 1:1
Excerpt: The particle size distribution and the diameters of the particles within the framework of the invention are relative to volume. dx means that x percent by volume (vol. %) of the particles have a diameter which is smaller than the stated value. With a d50 value of 1 μm therefore 50 vol. % of the particles have a diameter smaller than 1 μm (micrometre). If d10 or […] is 1 μm, 10 or 90 vol. %, respectively, of the particles have a diameter smaller than 1 μm. The d50 value is also called average particle size or average particle diameter.
Within the framework of the invention, the average particle size (d50 values) and the particle size distribution were measured by means of laser diffraction, which provides a distribution of the particle sizes. A Mastersizer E (Malvern Instruments) was used. 5 mg solid is dispersed for 20 min in 5 ml 0.1% aqueous sodium dodecyl sulphate solution using ultrasound (2 mm sonotrode, sonicator UPS 200, Dr. Hielscher GmbH, 30% amplitude) and placed in the measurement cell of the Mastersizer E, an optical concentration of 18% is set and measurement is carried out (Fraunhofer evaluation). The span was calculated from the d10, d50 and d90 values ((d90 −d10);d50 ).

[5] = habit of the particles evaluated on a microscope image (ratio of largest to smallest size); type: physicochemical
Experimental: The predominantly spherical shape manifests itself in that in this preferred embodiment the ratio of the largest to the smallest size of the individual particles is on average ≦2. This ratio is determined by measurement on a microscope image of the particles, by determining the ratio of the largest to the smallest size of each individual particle for at least 50 randomly selected particles and then ascertaining the average over the at least 50 particles. Preferably, the ratio of the largest to the smallest size of the individual particles is on average ≦1.6.
Immediately after the end of the stirring time, the batch is filtered using a nutsch filter with a negative pressure of 100 mbar on the filtrate side and washed with 1.0 l water. The moist filter cake has a mass of approx. 1100 g and is transferred into a 3-l container, topped up to 2160 g with water and redispersed with the Ultra Turrax T50 (|KA) at 12,000 1/min for 10 min. After this, the third d50 value is determined to be 1.28 μm from this second suspension. The span value of the particles is 1.28. The habit is evaluated microscopically as stated above (light microscope image). Habit of the particles: spherical; ratio of the largest to the smallest size of the individual particles on average=1.48. The second suspension is then spray-dried and the particles of fluticasone propionate are obtained.

[6] = Example 2, mixture of the second suspensions of the preceding and subsequent batch
[7] = Example 1, light microscope image

For `CCC(=O)O[C@]1(C(=O)SCF)[C@H](C)C[C@H]2[C@@H]3C[C@H](F)C4=CC(=O)C=C[C@]4(C)[C@@]3(F)[C@@H](O)C[C@@]21C` [fluticasone propionate], the d50 values [1] is listed as 1-2 μm, the span values [1] is listed as no less than 1.7 and the d50 [2] is listed as 1.47 μm. The span [2] was 1.78, the “solubility of fluticasone propionate” value [3] was 0.032 wt. % and the “second d50” value ([4]; Example 1, after 4.5 h stirring, 42% acetone) was 1.12 μm. The “span value of the particles” value ([4]; Example 1, second suspension) was 1.28, the “third d50 value” ([4]; Example 1, second suspension after further 17 h stirring, filtration and redispersing in water) was 1.28 μm and the “d50 value of the particle size distribution (first d50)” value (shortened to “d50 value … (first d50)”) ([4]; Example 1, starting suspension) was 0.98 μm. For the same compound, the d50 value [4, 6] was 1.28 μm, the “span value of the distribution” value [4, 6] was 1.28 and the “second d50 value” ([4]; Example 2, preceding batch, after 4.0 h stirring, 42% acetone) was 1.12 μm. For the same compound, the “span value of the distribution” value ([4]; Example 2, preceding batch, second suspension) was 1.29, the “third d50 value” ([4]; Example 2, preceding batch, second suspension after further 13 h stirring) was 1.24 μm and the “d50 value … (first d50)” value ([4]; Example 2, preceding batch, starting suspension) was 0.99 μm. The “intermediate d50 value” ([4]; Example 2, subsequent batch, after 3.5 h stirring, 42% acetone) was 1.09 μm, the span value of the distribution ([4]; Example 2, subsequent batch, second suspension) was 1.24 and the “third d50 value” ([4]; Example 2, subsequent batch, second suspension, stirring time increased to 18 h) was 1.30 μm. The “d50 value … (first d50)” value ([4]; Example 2, subsequent batch, starting suspension) was 0.97 μm, the “habit of the particles” value [5, 7] was “spherical” and the “ratio of the largest to the smallest size of the individual particles on average” value [5, 7] was 1.48. For the same compound, the “habit of the particles” value ([5]; Example 2, subsequent batch) was “spherical” and the “ratio of the largest to the smallest size of the individual particles on average” value ([5]; Example 2, subsequent batch) was 1.45.
